The text below walks through data of paper PMC7146574, “Efficacy of a Novel ACE-Inhibitory Peptide from Sargassum maclurei in Hypertension and Reduction of Intracellular Endothelin-1” (Nutrients, 2020).

Residues, ends and D or L forms follow the SMILES beside them.

Data set [1] has as its system spontaneously hypertensive rats (SHRs). The data set can be described thus: Antihypertensive effect in vivo, tail-cuff method. Also noted: species or system rat. The note with it: oral 50, 100 and 150 mg/kg body weight every day (Figure S3). On the procedure:
Twenty male spontaneously hypertensive rats (SHRs; 11 weeks, 240 ± 20 g body weight) from Vital River Laboratory Animal Technology Co., Ltd. (Beijing, China) were randomly divided into five groups of four rats each: negative control, positive control, and high-, middle- and low- dosage groups. Normal diet and tap water were freely available. Rats in the high-, middle-, and low-dose groups were orally given the synthetic peptide (RWDISQPY) via gastric intubation at 150, 100, and 50 mg/kg/body weight once daily, respectively. Meanwhile, rats in the positive control were orally given captopril (14 mg/kg/body weight once daily), and rats in the negative control were just administrated saline (0.9%). The diastolic blood pressure (DBP) and systolic blood pressure (SBP) of the rats were measured by the tail-cuff method once a week. The heart rate was recorded simultaneously. The animal experiment was conducted in conformity with institutional guidelines for the care and use of laboratory animals in Shanxi Normal University (No. 20181003, 16 September 2018), Linfen, China. All of the rats received human care conforming to the National Institutes of Health Guide for Care and Use of Laboratory Animals (National Institute of Health Publication No. 85–23, revised).

The test system of data set [2] is endothelin-1 (ET-1) in EA.hy926 cells. The data set can be described thus: Effects on intracellular endothelin-1 (ET-1), ELISA of growth medium. Format: cell-based, human. The note with it: captopril 1.0 mg/mL as comparison, 48 h. On the procedure: In a humidified atmosphere with 5% CO2, the EA.hy926 cells (a permanent hybridoma of the human umbilical vein endothelial cells and human lung carcinoma cell line A549) grown in 96-well plates were cultured in DMEM containing non-essential amino acids (10 mg/mL), streptomycin (0.1 mg/mL), and fetal bovine serum (0.1 g/mL) at 37 °C [5]. The cells (1.0 × 10^5 cells mL^−1) were treated with the synthesized peptides (0.5–1.5 mg/mL) for 24 h, and then the MTT assay was used to measure the cytotoxicity levels of the peptides. Moreover, EA.hy926 cells seeded in another 96-well plate (1.0 × 10^5 cells mL^−1) were cultured in DMEM at 37 °C for 24 h, and then treated with synthesized peptides (1–2 mg/mL) for 48 h. After that, the ET-1 content of the growth medium in each well was quantified by the ET-1 Elisa kit according to the instructions. Cells in the blank group were not treated with samples, while the cells in the positive group were treated with captopril (1 mg/mL). The inhibition ability on ET-1 was calculated as follows:(1) Inhibition abliliy (%)=(CB−Cs)/CB×100% where CB was the ET-1 content of the growth medium in the blank group and CS was the ET-1 content of the growth medium treated with the samples.
(ELISA stands for enzyme-linked immunosorbent assay.)

In another data set the test system is ACE. Details: method as in 5 sources, ref 8, 38 = [8]; PMID 30893907; doi:10.3390/md17030179; 8. Sun S. Xu X. Sun X. Zhang X. Chen X. Xu N. Preparation and Identification of ACE Inhibitory Peptides from the Marine Macroalga Ulva intestinalis Mar. Drugs 2019 17 179 10.3390/md17030179 PMC6471128 || [38]; doi:10.1016/j.jff.2015.10.025; 38. Forghani B. Zarei M. Ebrahimpour A. Philip R. Bakar J. Abdul-Hamid A. Saari N. Purification and characterization of angiotensin converting enzyme-inhibitory peptides derived from Stichopus horrens ||| ref 5, 9 = [5]; PMID 31108740; doi:10.1016/j.foodres.2019.03.035; 5. Zhao Y. Zhang L. Tao J. Chi C. Wang B. Eight antihypertensive peptides from the protein hydrolysate of Antarctic krill ( Euphausia superba ): Isolation, identification, and activity evaluation on h || [9]; PMID 30229250; doi:10.1039/C8FO00569A; 9. Ling Y. Sun L.P. Zhuang Y.L. Preparation and identification of novel inhibitory angiotensin-I-converting enzyme peptides from tilapia skin gelatin hydrolysates: Inhibition kinetics and molecular do ||| ref 38, 40 = [38]; doi:10.1016/j.jff.2015.10.025; 38. Forghani B. Zarei M. Ebrahimpour A. Philip R. Bakar J. Abdul-Hamid A. Saari N. Purification and characterization of angiotensin converting enzyme-inhibitory peptides derived from Stichopus horrens || [40]; PMID 29606478; doi:10.1016/j.foodchem.2018.02.107; 40. Tu M. Wang C. Chen C. Zhang R. Liu H. Lu W. Jing L. Du M. Identification of a novel ACE-inhibitory peptide from casein and evaluation of the inhibitory mechanisms Food Chem. 2018 256 98 104 10.101 ||| ref 41, 28 = [41]; doi:10.1016/j.lwt.2018.12.059; 41. Bhaskar B. Ananthanarayana L. Jamdar S. Purification, identification, and characterization of novel angiotensin I converting enzyme (ACE) inhibitory peptides from alcalase digested horse gram flou || [28]; doi:10.1016/j.jff.2017.03.008; 28. Lin K. Zhang L. Han X. Cheng D.Y. Novel angiotensin I-converting enzyme inhibitory peptides from protease hydrolysates of Qula casein: Quantitative structure-activity relationship modeling and mol ||| ref 25 = [25]; doi:10.1016/j.lwt.2016.08.047; 25. Wang X. Chen H. Fu X. Li S. Wei J. A novel antioxidant and ACE inhibitory peptide from rice bran protein: Biochemical characterization and molecular docking study LWT Food Sci. Technol. 2017 75 93. The note with it: cited from earlier work; for IC50: literature comparison.

For `CC[C@H](C)[C@H](NC(=O)[C@H](CC(=O)O)NC(=O)[C@H](Cc1c[nH]c2ccccc12)NC(=O)[C@@H](N)CCCNC(=N)N)C(=O)N[C@@H](CO)C(=O)N[C@@H](CCC(N)=O)C(=O)N1CCC[C@H]1C(=O)N[C@@H](Cc1ccc(O)cc1)C(N)=O` [RWDISQPY] (H-RWDISQPY-NH2), in data set [1], the “Effect on heart rate” value is “no side effect” and the “Effect on normal increase in body weight” value was “no side effect”.
As for `C[C@H](CS)C(=O)N1CCC[C@H]1C(=O)O` [captopril], the “Effect on ET-1 secretion” value in data set [2] was “reduce ET-1 secretion”.
As to FGMPLDR, in the data set on ACE, the IC50 is 219 µM.
For “GSAGY [literature peptide identified from horrens protein]”, the IC50 in the data set on ACE was 706 µM.
Consider NMAINPSKENLCSTFCK, for which the concentration for half-maximal inhibition (IC50) with ACE was 129 µM.
As for PFPGPIPN, the ACE inhibition pattern result with ACE was “competitive”.
For QAGLSPVR, the IC50 in the data set on ACE was 63.9 µM.
Turning to QLLLQQ, the ACE inhibition pattern result in the data set with ACE was “competitive”.
Turning to TVGMTAKF, in the data set on ACE, the ACE inhibition pattern entry was “competitive”.
VSRHFASYAN: the IC50 in the data set on ACE was 210 µM.

One may read the IC50 as the concentration that inhibits the measured activity by half.
